Assay [1] concerns the target T1, human PPAR α (Homo sapiens, UniProt Q07869).
T1 construct: expressed in transfected cells; host or cells: HepG2 (ATCC HB-8065) or 293T cells (ATCC CRL-1573)
T1 sequence (Q07869 239-466 limits assumed): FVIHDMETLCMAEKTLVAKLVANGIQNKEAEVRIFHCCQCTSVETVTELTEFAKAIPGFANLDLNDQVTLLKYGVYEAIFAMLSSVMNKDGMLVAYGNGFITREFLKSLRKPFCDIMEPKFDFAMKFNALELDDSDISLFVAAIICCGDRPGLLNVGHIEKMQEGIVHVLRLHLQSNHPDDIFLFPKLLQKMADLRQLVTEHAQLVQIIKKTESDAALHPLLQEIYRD
Kind of assay: Exogeneous PPAR α agonist assay (GAL4 DNA binding domain/PPAR α ligand binding domain, luciferase) in 293T cells. Type of assay: cell-based. Also noted: scale not given here. The settings on record: 25 μM compound, 48 hours, luciferase activity increase relative to the control. A digest of the protocol: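 HepG2 or 293T cells (2×10^4/well) lipofectamine-transfected 3 hours with PPAR α, UAS firefly-luciferase and Renilla-luciferase constructs. Compounds then added at 25 μM final and incubated 48 hours at 37° C. PPAR α activation measured as dual firefly/Renilla luciferase luminescence.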

For assay [2], the target named is T1, human PPAR α. As to the kind of experiment: Exogeneous PPAR α agonist assay (GAL4 DNA binding domain/PPAR α ligand binding domain, luciferase) in HepG2 cells. Type of assay: cell-based. The following applies: 25 μM compound, 48 hours, luciferase activity increase relative to the control. As for the experimental part: Step 1) Exogeneous PPAR α Agonist Assay
Cross-activation assay of the compounds of Examples 1 to 134 against human PPAR α was carried out using a DNA construct of PPAR α including its ligand binding domain and GAL4 DNA binding domain (Sher et al., Biochemistry 32, 5598-5604, 1993) to analyze whether any of the compounds binds to the ligand binding domain of PPAR α expressed by the construct to affect the PPAR α activity. When the GAL4 DNA binding domainm which is fused with PPAR α ligand binding domain, binds to UAS (upstream activation sequence) of firefly-luciferase, the luciferase is expressed. Therefore, the effect of each of the compounds of Examples on PPAR α activation can be evaluated by analyzing the activation of luciferase.
Specifically, 2×10^4 of HepG2 (ATCC HB-8065) or 293T cells (ATCC CRL-1573) were aliquotted into each well of a 96-well plate and cultured for overnight at 37° C. in a CO2 incubator (culture condition: DMEM, 10% FBS and 1% antibiotics).
The transformation of PPAR α DNA was traced as follows. First, a mixture of the following ingredients in amounts per well; Solution A (Promega) containing 50 ng of full length human PPAR α DNA, 50 ng of firefly-luciferase construct, 5 ng of Renilla-luciferase construct, 1.0 μl of PLUS™ reagent, and 8.3 μl of a serum-free medium containing no antibiotics; was prepared and kept at room temperature for 15 min. Solution B, which contained 0.5 μl of Lipofectamine™ reagent and 9.5 μl of serum-free medium without antibiotics per well, and Solution C, which contained 50 μl of serum-free medium per well), were prepared. Solutions A, B and C were mixed together to prepare lipofectamin-DNA complex, and the mixture was kept at room temperature for 15 min. Single layer of cells on each well of a 96-well plate were washed with serum-free DMEM, 70 μl of lipofectamine-DNA complex prepared above was added thereto, the plate was incubated at 37° C. in a 5% CO2 incubator for 3 hours to transform the cells, and […] of a diluted solution of each of the compounds of Examples 1 to 134 per well was added to each well to a final concentration 25 μM, and incubated at 37° C. in a CO2 incubator for 48 hours. Then, the medium was removed, 50 μl of passive lysis buffer (Promega) was added thereto, and the plate was shook at room temperature for 20 min to lysis cells. 40 μl of Luciferase Assay reagent of Dual Luciferase Kit […] per 20 μl of cell lysis buffer was added to the plate, followed by reacting at 20° C. for 8 seconds, and 40 μl of Stop & Glo reagent (Promega) as a stop solution was added thereto to quench the reaction. The luminescence intensities of F-luciferase and R-luciferase were measured with MicroLumat Plus (Berthord Technology).

A further assay deals with ob/ob mice. Kind of assay: Anti-obesity test: lipid metabolism-related materials and glucose in blood of ob/ob mice. The following applies: 100 mg/kg oral twice a day, 28 days, fasted 16 hours, plasma. Type of assay: in vivo. As for the experimental part: In order to evaluate the anti-obesity activity of the inventive compound, B6.V-Lepob/J mice (laboratory animal team of Korea Research Institute of Chemical Technology) were used for tests and lean mice as a control. Ob/ob mice are model animals for insulin-independent diabetes, suitable for studying the effect of an anti-obesity drug.
42 mice weighing 38.6±1.4 g were selected randomly from a pool of ob/ob mice (7-9 weeks old), and divided into groups of 7 mice each. The test was carried out at a constant temperature (24±0.5° C.) and humidity (55±5%) using ventilation system (10-12 times/hour), under a specific pathogen free (SPF) condition created in an automatic on-off cycle of 12 hours.
The groups were divided to a control group treated only with an excipient, a positive control group treated with fenofibrate, and test groups treated with each of the compounds of Examples 5, 62 and 65, at dosage 100 mg/10 ml/kg body weight. Each of the test and control compounds was diluted with 0.5% CMC to a concentration to match the above dosage, and administered orally using a syringe into the stomach twice a day (9:00 and 18:00) for a period of 4 weeks, and the following characteristics were measured.
3) Measurement of Lipid Metabolism-Related Materials and Insulin Concentration in Blood
28 days after the administration, experimental mice were fasted for 16 hours, and the concentrations of lipid metabolism-related materials such as triglyceride, free fatty acid and cholesterol, and insulin in blood were measured. Specifically, a blood sample was collected from the ocular venous plexus of each mouse and centrifuged to separate plasma. The glucose (GLU), HDL-cholesterol (HDL), LDL-cholesterol (LDL), triglyceride (TG) and free fatty acid (NEFA) levels were measured by enzymatic assay using 2 kinds of Selectra (Vital Lab), an automatic biochemical analyzer, and the insulin concentration was measured by ELISA using an insulin detection kit (Shibayagi).

14 compounds from patent publication US20070254882A1, “Sulfamide Derivatives and Pharmaceutical Composition for Upregulation of Lipid Metabolism Comprising Same” (CRYSTAL GENOMICS, INC., priority 2004, published 2007) can be followed below.

Turning to `Cc1ccc(-c2nc(COc3cccc(C(C)N(CC(=O)O)S(=O)(=O)N(C)C)c3)c(C)o2)cc1` (stereo not shown) [Example 126, [N—(N,N-dimethylamino)sulfonyl-N-[1-[[3-(5-methyl-2-p-tolyloxazol-4-yl)methoxy]phenyl]ethyl]amino]acetic acid], the “Activity at 25 μM Step 1 293T cell” value at human PPAR α [1] is 4. Moreover, the “Activity at 25 μM Step 1 HepG2 cell” value on human PPAR α [2] was 62.

Take `CCN(c1cccc(C)c1)S(=O)(=O)N(CC(=O)O)Cc1ccc(OCCc2nc(-c3ccc(C)cc3)oc2C)cc1` [Example 111, [N—(N-ethyl-N-m-tolylamino)sulfonyl-N-[4-[2-[2-(4-methylphenyl)-5-methyloxazol-4-yl]ethoxy]benzyl]amino]acetic acid]: the “Activity at 25 μM Step 1 293T cell” value on human PPAR α [1] is given as 5. For the same compound, the “Activity at 25 μM Step 1 HepG2 cell” value at human PPAR α [2] is on record as 25.

In the case of `Cc1oc(-c2ccc(C(F)(F)F)cc2)nc1CCOc1cccc(CN(CC(=O)O)S(=O)(=O)N(C)C(C)C)c1` [Example 68, [N—(N-isopropyl-N-methylanmo)sulfonyl-N-[3-[2-[2-(4-trifluoromethylphenyl)-5-methyloxazol-4-yl]ethoxy]benzyl]amino]acetic acid], the “Activity at 25 μM Step 1 293T cell” value on human PPAR α [1] amounted to 2. Moreover, at human PPAR α [2], the “Activity at 25 μM Step 1 HepG2 cell” value is 11.

In the case of `CN(C)S(=O)(=O)N(CC(=O)O)Cc1ccc(OCCc2coc(-c3ccccc3)n2)cc1` [Example 132, [N—(N,N-dimethylamino)sulfonyl-N-[4-[(2-phenyloxazol-4-yl)ethoxy]benzyl]amino]acetic acid], at human PPAR α [1], the “Activity at 25 μM Step 1 293T cell” value came to 5. Besides, on human PPAR α [2], the “Activity at 25 μM Step 1 HepG2 cell” value amounted to 32.

`Cc1oc(-c2ccc(C(F)(F)F)cc2)nc1COc1cccc(CN(CC(=O)O)S(=O)(=O)N2CCCCC2)c1` [Example 11, [N-(piperidinyl)sulfonyl-N-[3-[[2-(4-trifluoromethylphenyl)-5-methyloxazol-4-yl]methoxy]benzyl]amino]acetic acid]: the “Activity at 25 μM Step 1 293T cell” value at human PPAR α [1] is on record as 4. The “Activity at 25 μM Step 1 HepG2 cell” value on human PPAR α [2] is 44.

For the compound `CCN(CC)S(=O)(=O)N(CC(=O)O)Cc1cccc(OCCc2nc(-c3ccc(C)cc3)oc2C)c1` [Example 63, [N—(N,N-diethylamino)sulfonyl-N-[3-[2-[2-(4-methylphenyl)-5-methyloxazol-4-yl]ethoxy]benzyl]amino]acetic acid], the “Activity at 25 μM Step 1 293T cell” value on human PPAR α [1] is 3. Moreover, the “Activity at 25 μM Step 1 HepG2 cell” value on human PPAR α [2] turned out to be 33.

Turning to `Cc1oc(-c2ccc(C(F)(F)F)cc2)nc1COc1cccc(CN(CC(=O)O)S(=O)(=O)N(C)C(C)C)c1` [Example 8, [N—(N-isopropyl-N-methylamino)sulfonyl-N-[3-[[2-(4-trifluoromethylphenyl)-5-methyloxazol-4-yl]methoxy]benzyl]amino]acetic acid], on human PPAR α [1], the “Activity at 25 μM Step 1 293T cell” value is on record as 4. Moreover, the “Activity at 25 μM Step 1 HepG2 cell” value on human PPAR α [2] stood at 31.

Regarding `CC(C)OC(=O)C(C)(C)Oc1ccc(C(=O)c2ccc(Cl)cc2)cc1` [fenofibrate, reference compound], in the assay with ob/ob mice, the “GLU (glucose)” value amounted to 223.1 ± 77.2 mg/dL, the “HDL (HDL-cholesterol)” value stood at 280.5 ± 28.5 mg/dL, the “LDL (LDL-cholesterol)” value came to 27.0 ± 4.7 mg/dL and the “NEFA (free fatty acid)” value was 1,003 ± 80 UEq/l. In addition, in the assay with ob/ob mice, the “TG (triglyceride)” value was 49.4 ± 6.1 mg/dL.

As to `COc1ccc(N(C)S(=O)(=O)N(CC(=O)O)Cc2cccc(OCc3nc(-c4ccc(C(F)(F)F)cc4)oc3C)c2)cc1` [Example 22], on human PPAR α [1], the “Activity at 25 μM Step 1 293T cell” value was determined as 4. In addition, on human PPAR α [2], the “Activity at 25 μM Step 1 HepG2 cell” value was 49.

As for `CCN(c1cccc(C)c1)S(=O)(=O)N(CC(=O)O)Cc1cccc(OCc2nc(-c3ccc(C(F)(F)F)cc3)oc2C)c1` [Example 21, [N—(N-ethyl-N-m-tolylamino)sulfonyl-N-[3-[[2-(4-trifluoromethylphenyl)-5-methyloxazol-4-yl]methoxy]benzyl]amino]acetic acid], at human PPAR α [1], the “Activity at 25 μM Step 1 293T cell” value stood at 5. For the same compound, the “Activity at 25 μM Step 1 HepG2 cell” value on human PPAR α [2] stood at 40.

For `C=CCN(C)S(=O)(=O)N(CC(=O)O)Cc1cccc(OCCc2nc(-c3ccc(C(F)(F)F)cc3)oc2C)c1` [Example 69, [N—(N-allyl-N-methylamino)sulfonyl-N-[3-[2-[2-(4-trifluoromethylphenyl)-5-methyloxazol-4-yl]ethoxy]benzyl]amino]acetic acid], the “Activity at 25 μM Step 1 293T cell” value on human PPAR α [1] stood at 2. Further, the “Activity at 25 μM Step 1 HepG2 cell” value on human PPAR α [2] came out at 40.

`CN(C)S(=O)(=O)N(CC(=O)O)Cc1cccc(OCCc2coc(-c3ccccc3)n2)c1` [Example 131, [N—(N,N-dimethylarino)sulfonyl-N-[3-[(2-phenyloxazol-4-yl)ethoxy]benzyl]amino]acetic acid]: at human PPAR α [1], the “Activity at 25 μM Step 1 293T cell” value was determined as 5. Also, the “Activity at 25 μM Step 1 HepG2 cell” value on human PPAR α [2] came out at 41.

With `Cc1oc(-c2ccc(C(F)(F)F)cc2)nc1COc1cccc(CN(CC(=O)O)S(=O)(=O)N(C)c2cccc(F)c2)c1` [Example 23, [N—[N-(3-fluorophenyl)-N-methylamino]sulfonyl-N-[3-[[2-(4-trifluoromethylphenyl)-5-methyloxazol-4-yl]methoxy]benzyl]amino]acetic acid], at human PPAR α [1], the “Activity at 25 μM Step 1 293T cell” value is recorded as 5. For the same compound, on human PPAR α [2], the “Activity at 25 μM Step 1 HepG2 cell” value amounted to 34.

With `Cc1ccc(-c2nc(COc3cccc(C(C)N(CC(=O)O)S(=O)(=O)N4CCCC4)c3)c(C)o2)cc1` (stereo not shown) [Example 127, [N-(pyrrolidinyl)sulfonyl-N-[1-[[3-(5-methyl-2-p-tolyloxazol-4-yl)methoxy]phenyl]ethyl]amino]acetic acid], at human PPAR α [1], the “Activity at 25 μM Step 1 293T cell” value is 3. Also, the “Activity at 25 μM Step 1 HepG2 cell” value on human PPAR α [2] is 50.
